Results published in the supplement of paper PMC4862054.

Experiments:
Test in all cases: normalised viability (% of control), CellTiter-Blue; higher = more viable cells (about 100 = DMSO control)
Conditions in all cases: incubation time: 72 h
MDA-MB-453 [1] = system: MDA-MB-453
Description: (§1)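 DSRT, CellTiter-Blue viability, 72 h incubation. Signal is normalised to DMSO and benzethonium chloride controls. Value is the normalised response at dose 7.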

CAL-51 [2] = system: CAL-51
Description: as §1

HDQ-P1 [3] = system: HDQ-P1
Description: as §1

CAL-148 [4] = system: CAL-148
Description: as §1

DU-4475 [5] = system: DU-4475
Description: as §1

CAL-85-1 [6] = system: CAL-85-1
Description: as §1

HCC1599 [7] = system: HCC1599
Description: (§2)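 DSRT, CellTiter-Blue viability, 72 h incubation. Signal is normalised to DMSO and benzethonium chloride controls. Value is the normalised response at dose 3.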

MDA-MB-468 = system: MDA-MB-468
Description: as §2

MDA-MB-231 = system: MDA-MB-231
Description: as §2

MDA-MB-453 [8] = system: MDA-MB-453; remark: listed apart in the source
Description: as §2

CAL-51 [9] = system: CAL-51; remark: listed apart in the source
Description: as §2

MFM-223 = system: MFM-223
Description: as §2

Hs578T = system: Hs578T
Description: as §2

HDQ-P1 [10] = system: HDQ-P1; remark: listed apart in the source
Description: as §2

CAL-148 [11] = system: CAL-148; remark: listed apart in the source
Description: as §2

BT-474 = system: BT-474
Description: as §2

HCC1937 = system: HCC1937
Description: as §2

DU-4475 [12] = system: DU-4475; remark: listed apart in the source
Description: as §2

BT-549 = system: BT-549
Description: as §2

SK-BR-3 = system: SK-BR-3
Description: as §2

CAL-85-1 [13] = system: CAL-85-1; remark: listed apart in the source
Description: as §2

HCC1143 = system: HCC1143
Description: as §2

CAL-120 [14] = system: CAL-120
Description: as §2

MDA-MB-436 = system: MDA-MB-436
Description: as §2

MDA-MB-453 [15] = system: MDA-MB-453; remark: listed apart in the source
Description: (§3)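 DSRT, CellTiter-Blue viability, 72 h incubation. Signal is normalised to DMSO and benzethonium chloride controls. Value is the normalised response at dose 8.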

CAL-51 [16] = system: CAL-51; remark: listed apart in the source
Description: as §3

HDQ-P1 [17] = system: HDQ-P1; remark: listed apart in the source
Description: as §3

CAL-148 [18] = system: CAL-148; remark: listed apart in the source
Description: as §3

DU-4475 [19] = system: DU-4475; remark: listed apart in the source
Description: as §3

CAL-85-1 [20] = system: CAL-85-1; remark: listed apart in the source
Description: as §3

HCC1599 [21] = system: HCC1599; remark: listed apart in the source
How it was run: (§4)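 Breast cancer cell lines were treated for 72 h in 384-well format and measured by CellTiter-Blue fluorescence at 560/590 nm. Results were normalised per plate to vehicle (100) and a positive kill control (0). The entry is normalised viability at a single listed concentration of the series.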

CAL-120 [22] = system: CAL-120; remark: listed apart in the source
How it was run: as §4

Compound `CC[C@@H]1C(=O)N(C)c2cnc(Nc3ccc(C(=O)NC4CCN(C)CC4)cc3OC)nc2N1C1CCCC1` [BI 2536] has a normalised viability (MDA-MB-453 [1]; 100 nM) of 29.9%, a normalised viability (CAL-51 [2]; 100 nM) of 12.1% and a normalised viability (HDQ-P1 [3]; 100 nM) of 57.7%. For the same compound, the normalised viability (CAL-148 [4]; 100 nM) was 28.3%, the normalised viability (DU-4475 [5]; 100 nM) was 22.3% and the normalised viability (CAL-85-1 [6]; 100 nM) was 59.4%. It also gave a normalised viability (HCC1599 [7]; 10 nM) of 90.9%, a normalised viability (MDA-MB-468; 10 nM) of 48.5% and a normalised viability (MDA-MB-231; 10 nM) of 52.6%. For the same compound, the normalised viability (MDA-MB-453 [8]; 1 nM) was 83.2%, the normalised viability (CAL-51 [9]; 1 nM) was 89.4% and the normalised viability (MFM-223; 10 nM) was 41.8%. The normalised viability (Hs578T; 10 nM) was 83.5%, the normalised viability (HDQ-P1 [10]; 1 nM) was 102% and the normalised viability (CAL-148 [11]; 1 nM) was 105%. The normalised viability (BT-474; 10 nM) was 44.4%, the normalised viability (HCC1937; 10 nM) was 25.9% and the normalised viability (DU-4475 [12]; 1 nM) was 91.7%. It also gave a normalised viability (BT-549; 10 nM) of 36.9%, a normalised viability (SK-BR-3; 10 nM) of 15.8% and a normalised viability (CAL-85-1 [13]; 1 nM) of 90%. It also gave a normalised viability (HCC1143; 10 nM) of 62.8%, a normalised viability (CAL-120 [14]; 10 nM) of 34.1% and a normalised viability (MDA-MB-436; 10 nM) of 77.8%. For the same compound, the normalised viability (MDA-MB-453 [15]; 300 nM) was 39.5%, the normalised viability (CAL-51 [16]; 300 nM) was 10.6% and the normalised viability (HDQ-P1 [17]; 300 nM) was 65.2%. For the same compound, the normalised viability (CAL-148 [18]; 300 nM) was 41.5%, the normalised viability (DU-4475 [19]; 300 nM) was 32.9% and the normalised viability (CAL-85-1 [20]; 300 nM) was 61.8%. It also gave a normalised viability (HCC1599 [21]; 1 nM) of 78.7%, a normalised viability (HCC1599 [21]; 100 nM) of 81.5% and a normalised viability (HCC1599 [21]; 1000 nM) of 61.3%. The normalised viability (CAL-120 [22]; 1 nM) was 97.5%, the normalised viability (CAL-120 [22]; 100 nM) was 28.6% and the normalised viability (CAL-120 [22]; 1000 nM) was 30.6%.
`CC[C@H](Nc1ncnc2[nH]cnc12)c1nc2cccc(F)c2c(=O)n1-c1ccccc1` [CAL-101] showed a normalised viability (MDA-MB-453 [1]; 1000 nM) of 87.7%, a normalised viability (CAL-51 [2]; 1000 nM) of 81.9% and a normalised viability (HDQ-P1 [3]; 1000 nM) of 82.4%. The normalised viability (CAL-148 [4]; 1000 nM) was 79.9%, the normalised viability (DU-4475 [5]; 1000 nM) was 87.8% and the normalised viability (CAL-85-1 [6]; 1000 nM) was 80.5%. For the same compound, the normalised viability (HCC1599 [7]; 100 nM) was 73.6%, the normalised viability (MDA-MB-468; 100 nM) was 115% and the normalised viability (MDA-MB-231; 100 nM) was 80.9%. The normalised viability (MDA-MB-453 [8]; 10 nM) was 97.4%, the normalised viability (CAL-51 [9]; 10 nM) was 84.7% and the normalised viability (MFM-223; 100 nM) was 88.3%. The normalised viability (Hs578T; 100 nM) was 89.6%, the normalised viability (HDQ-P1 [10]; 10 nM) was 112% and the normalised viability (CAL-148 [11]; 10 nM) was 96.2%. It also gave a normalised viability (BT-474; 100 nM) of 112%, a normalised viability (HCC1937; 100 nM) of 97.1% and a normalised viability (DU-4475 [12]; 10 nM) of 98.6%. For the same compound, the normalised viability (BT-549; 100 nM) was 102%, the normalised viability (SK-BR-3; 100 nM) was 76.3% and the normalised viability (CAL-85-1 [13]; 10 nM) was 87.5%. For the same compound, the normalised viability (HCC1143; 100 nM) was 102%, the normalised viability (CAL-120 [14]; 100 nM) was 97.2% and the normalised viability (MDA-MB-436; 100 nM) was 104%. It also gave a normalised viability (MDA-MB-453 [15]; 3000 nM) of 79.5%, a normalised viability (CAL-51 [16]; 3000 nM) of 89.3% and a normalised viability (HDQ-P1 [17]; 3000 nM) of 80.7%. It also gave a normalised viability (CAL-148 [18]; 3000 nM) of 83.3%, a normalised viability (DU-4475 [19]; 3000 nM) of 104% and a normalised viability (CAL-85-1 [20]; 3000 nM) of 76.8%. For the same compound, the normalised viability (HCC1599 [21]; 10 nM) was 84.8%, the normalised viability (HCC1599 [21]; 1000 nM) was 77.9% and the normalised viability (HCC1599 [21]; 10000 nM) was 49.1%. The normalised viability (CAL-120 [22]; 10 nM) was 95.6%, the normalised viability (CAL-120 [22]; 1000 nM) was 89.6% and the normalised viability (CAL-120 [22]; 10000 nM) was 77.8%.
